PubChem BioAssay AID330 (DTP/NCI, 2004)
Values joined by “and” are separate entries in the source; they are usually repeats but may differ in a detail not shown here. Equal entries are not always repeated. Inconclusive results and toxic doses are left out.

Test system: P388 leukemia ip, CD2F1 mice, survival T/C
Assay: NCI In Vivo Anticancer Drug Screen. Data for tumor model P388 Leukemia (intraperitoneal) in CD2F1 (CDF1) mice
Conditions: endpoint: median survival time, higher = longer survival
In short: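 Mice carrying the transplanted tumor received test compound or vehicle. Survival was recorded in each group, and the value is the treated-group measurement divided by that of the vehicle-treated control group.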

[1] = dose: 50.0 mg/kg/injection, schedule: Q04DX003 (ip), vehicle: saline with Tween-80
[2] = dose: 100.0 mg/kg/injection, schedule: Q04DX003 (ip), vehicle: saline with Tween-80
[3] = dose: 200.0 mg/kg/injection, schedule: Q04DX003 (ip), vehicle: saline with Tween-80
[4] = dose: 50.0 mg/kg/injection, schedule: Q01DX005 (ip), vehicle: saline with Tween-80
[5] = dose: 100.0 mg/kg/injection, schedule: Q01DX005 (ip), vehicle: saline with Tween-80
[6] = dose: 200.0 mg/kg/injection, schedule: Q01DX005 (ip), vehicle: saline with Tween-80
[7] = dose: 60.0 mg/kg/injection, schedule: Q01DX005 (ip), vehicle: saline with Tween-80
[8] = dose: 120.0 mg/kg/injection, schedule: Q01DX005 (ip), vehicle: saline with Tween-80
[9] = dose: 240.0 mg/kg/injection, schedule: Q01DX005 (ip), vehicle: saline with Tween-80
[10] = dose: 25.0 mg/kg/injection, schedule: Q04DX003 (ip), vehicle: saline
[11] = dose: 50.0 mg/kg/injection, schedule: Q04DX003 (ip), vehicle: saline
[12] = dose: 100.0 mg/kg/injection, schedule: Q04DX003 (ip), vehicle: saline
[13] = dose: 50.0 mg/kg/injection, schedule: Q01DX009 (ip), vehicle: Klucel (hydroxypropylcellulose) (HPC)

Q: For `COc1cc(OC)c(C(C)=O)c(O)c1C`, which T/C (dose: 12.5 mg/kg/injection, schedule: Q01DX009 (ip), vehicle: distilled water + Tween-80) is on record?
A: 94 % of control

Q: What about the T/C (dose: 25.0 mg/kg/injection, schedule: Q01DX009 (ip), vehicle: distilled water + Tween-80) of the same compound?
A: 101 % of control

Q: And the T/C (dose: 50.0 mg/kg/injection, schedule: Q01DX009 (ip), vehicle: distilled water + Tween-80)?
A: 98 % of control

Q: What about the T/C (dose: 100.0 mg/kg/injection, schedule: Q01DX009 (ip), vehicle: distilled water + Tween-80) of the same compound?
A: 99 % of control

Q: And the T/C (dose: 200.0 mg/kg/injection, schedule: Q01DX009 (ip), vehicle: distilled water + Tween-80)?
A: 109 % of control

Q: What about the T/C (dose: 400.0 mg/kg/injection, schedule: Q01DX009 (ip), vehicle: distilled water + Tween-80) of the same compound?
A: 100 % of control

Q: Which T/C [1] does the source give for `CC(C=O)CC1CCCCC1` (configuration not stated) here?
A: 100 % of control

Q: What about the T/C [2] of the same compound?
A: 100 % of control

Q: What about the T/C [3] of the same compound?
A: 109 % of control

Q: With `CCOC(=O)C1=NN(c2ccccc2)CC1C(=O)OC` (configuration not stated) as the compound, how does the T/C (dose: 50.0 mg/kg/injection, schedule: Q04DX002 (ip), vehicle: suspension in saline) read?
A: 103 % of control

Q: And the T/C (dose: 100.0 mg/kg/injection, schedule: Q04DX002 (ip), vehicle: suspension in saline)?
A: 100 % of control

Q: And the T/C (dose: 200.0 mg/kg/injection, schedule: Q04DX002 (ip), vehicle: suspension in saline)?
A: 98 % of control

Q: Which results are given for `CCCCCCN(CCCCCC)CC(O)c1cccc2ccc(Cl)cc12` (configuration not stated)?
A: T/C [4]: 90 % of control; T/C [5]: 95 % of control; T/C [6]: 109 % of control

Q: Which results are given for `CCCCC(CC)CCC(C)O` (configuration not stated)?
A: T/C [1]: 100 % of control; T/C [2]: 109 % of control

Q: For `CC1=CCCCC1=O`, which T/C [7] is on record?
A: 107 % of control

Q: What about the T/C [8] of the same compound?
A: 106 % of control

Q: What about the T/C [9] of the same compound?
A: 102 % of control

Q: `CC(=O)c1cccc(OCC(O)CN2CCN(c3ccc(C)cc3)CC2)c1` (configuration not stated) was tested. Which T/C (dose: 100.0 mg/kg/injection, schedule: Q04DX003 (ip), vehicle: Klucel (hydroxypropylcellulose) (HPC)) did it give?
A: 107 % of control

Q: What about the T/C (dose: 400.0 mg/kg/injection, schedule: Q04DX003 (ip), vehicle: Klucel (hydroxypropylcellulose) (HPC)) of the same compound?
A: 91 % of control

Q: `CN(C)CCc1ccccn1` was tested. Which T/C [10] did it give?
A: 101 % of control

Q: And the T/C [11]?
A: 115 % of control

Q: What about the T/C [12] of the same compound?
A: 94 % of control

Q: How did the T/C (dose: 25.0 mg/kg/injection, schedule: Q01DX001 (ip), vehicle: saline) turn out when `CC(C)(C)N=C(CCNC1CCCCC1)Nc1cccc(C(F)(F)F)c1` was run?
A: 98 % of control

Q: What about the T/C (dose: 50.0 mg/kg/injection, schedule: Q01DX001 (ip), vehicle: saline) of the same compound?
A: 101 % of control

Q: What about the T/C (dose: 100.0 mg/kg/injection, schedule: Q01DX001 (ip), vehicle: saline with Tween-80) of the same compound?
A: 101 % of control

Q: And the T/C (dose: 100.0 mg/kg/injection, schedule: Q01DX001 (ip), vehicle: saline)?
A: 113 % of control

Q: `Nc1nc2ccccc2[nH]1` was tested. Which T/C (dose: 20.0 mg/kg/injection, schedule: Q04DX003 (ip), vehicle: other) did it give?
A: 101 % of control

Q: And the T/C (dose: 20.0 mg/kg/injection, schedule: Q04DX003 (oral), vehicle: other)?
A: 102 % of control

Q: And the T/C (dose: 40.0 mg/kg/injection, schedule: Q04DX003 (ip), vehicle: other)?
A: 100 % of control

Q: What about the T/C (dose: 40.0 mg/kg/injection, schedule: Q04DX003 (oral), vehicle: other) of the same compound?
A: 100 % of control

Q: What about the T/C (dose: 80.0 mg/kg/injection, schedule: Q04DX003 (ip), vehicle: other) of the same compound?
A: 101 % of control

Q: And the T/C (dose: 80.0 mg/kg/injection, schedule: Q04DX003 (oral), vehicle: other)?
A: 102 % of control

Q: And the T/C (dose: 160.0 mg/kg/injection, schedule: Q04DX003 (ip), vehicle: other)?
A: 99 % of control

Q: What about the T/C (dose: 160.0 mg/kg/injection, schedule: Q04DX003 (oral), vehicle: other) of the same compound?
A: 102 % of control

Q: With `OC(CCCCOc1ccccc1)(c1ccccc1)c1ccccc1` as the compound, how does the T/C [7] read?
A: 100 % of control

Q: And the T/C [8]?
A: 101 % of control

Q: And the T/C [9]?
A: 101 % of control

Q: `COc1cc(C2C(C#N)=C(C)Nc3nc(N)nc(N)c32)cc(OC)c1OC` (configuration not stated) was tested. Which T/C [7] did it give?
A: 94 % of control

Q: And the T/C [8]?
A: 106 % of control

Q: And the T/C [9]?
A: 104 % of control

Q: For `C[N+]12CCN(CC1)CC2`, which T/C [12] is on record?
A: 104 % of control

Q: What about the T/C (dose: 200.0 mg/kg/injection, schedule: Q04DX003 (ip), vehicle: saline) of the same compound?
A: 95 % of control

Q: And the T/C (dose: 400.0 mg/kg/injection, schedule: Q04DX003 (ip), vehicle: saline)?
A: 100 % of control

Q: With `CS(=O)(=O)N/N=C/C(=O)O` as the compound, how does the T/C (dose: 12.5 mg/kg/injection, schedule: Q01DX009 (ip), vehicle: water) read?
A: 118 % of control

Q: What about the T/C (dose: 50.0 mg/kg/injection, schedule: Q01DX009 (ip), vehicle: water) of the same compound?
A: 160 % of control

Q: What about the T/C (dose: 100.0 mg/kg/injection, schedule: Q01DX009 (ip), vehicle: water) of the same compound?
A: 157 % of control and 159 % of control

Q: How did the T/C [13] turn out when `CCCCCCCCCCCC[N+](C)([O-])Cc1ccccc1` (configuration not stated) was run?
A: 89 % of control

Q: Which results are given for `Cc1cc(O)c2c(c1)C(=O)c1c(c(O)cc(O)c1-c1c(O)cc(O)c3c1C(=O)c1cc(C)cc(O)c1C3=O)C2=O`?
A: T/C (dose: 3.0 mg/kg/injection, schedule: Q01DX005 (ip), vehicle: Klucel (hydroxypropylcellulose) (HPC)): 95 % of control; T/C (dose: 6.0 mg/kg/injection, schedule: Q01DX005 (ip), vehicle: Klucel (hydroxypropylcellulose) (HPC)): 99 % of control; T/C (dose: 12.0 mg/kg/injection, schedule: Q01DX005 (ip), vehicle: Klucel (hydroxypropylcellulose) (HPC)): 96 % of control; T/C (dose: 12.5 mg/kg/injection, schedule: Q01DX005 (ip), vehicle: Klucel (hydroxypropylcellulose) (HPC)): 91 % of control; T/C (dose: 24.0 mg/kg/injection, schedule: Q01DX005 (ip), vehicle: Klucel (hydroxypropylcellulose) (HPC)): 93 % of control; T/C (dose: 25.0 mg/kg/injection, schedule: Q01DX005 (ip), vehicle: Klucel (hydroxypropylcellulose) (HPC)): 93 % of control

Q: What does the source list for `CN1CCN(CC(O)Cn2c(=O)c3c(nc(N4CCN(C)CC4)n3C)n(C)c2=O)CC1` (configuration not stated)?
A: T/C [13]: 87 % of control; T/C (dose: 100.0 mg/kg/injection, schedule: Q01DX009 (ip), vehicle: Klucel (hydroxypropylcellulose) (HPC)): 102 % of control; T/C (dose: 200.0 mg/kg/injection, schedule: Q01DX009 (ip), vehicle: Klucel (hydroxypropylcellulose) (HPC)): 105 % of control

Q: What does the source list for `CC1CN=C(c2cccc(NC(=O)NCCCCNC(=O)Nc3cccc(C4=NCC(C)N4)c3)c2)N1` (configuration not stated)?
A: T/C (dose: 6.25 mg/kg/injection, schedule: Q01DX005 (ip), vehicle: saline with Tween-80): 100 % of control; T/C (dose: 12.5 mg/kg/injection, schedule: Q01DX005 (ip), vehicle: saline with Tween-80): 104 % of control

Q: How did the T/C (dose: 12.5 mg/kg/injection, schedule: Q04DX003 (ip), vehicle: saline) turn out when `NC(COc1ccccc1)Cc1ccccc1` (configuration not stated) was run?
A: 100 % of control

Q: What about the T/C [10] of the same compound?
A: 100 % of control

Q: And the T/C [11]?
A: 102 % of control

Q: What about the T/C [12] of the same compound?
A: 99 % of control

Q: Which T/C [4] does the source give for `CCC1C(=O)C=C(c2ccccc2)CC1c1ccccc1` (configuration not stated) here?
A: 111 % of control

Q: What about the T/C [5] of the same compound?
A: 102 % of control

Q: What about the T/C [6] of the same compound?
A: 93 % of control

Q: What does the source list for `CC(=O)/C(=C\c1ccccc1)C(=O)CCN(C)C`?
A: T/C (dose: 25.0 mg/kg/injection, schedule: Q01DX005 (ip), vehicle: saline with Tween-80): 100 % of control; T/C [4]: 103 % of control

Q: For `O=C(c1ccccc1)N1OC12CCCCC2`, which T/C (dose: 50.0 mg/kg/injection, schedule: Q01DX005 (ip), vehicle: Klucel (hydroxypropylcellulose) (HPC)) is on record?
A: 102 % of control

Q: And the T/C (dose: 100.0 mg/kg/injection, schedule: Q01DX005 (ip), vehicle: Klucel (hydroxypropylcellulose) (HPC))?
A: 99 % of control

Q: Which T/C (dose: 50.0 mg/kg/injection, schedule: Q01DX009 (ip), vehicle: saline with Tween-80) does the source give for `CCCCC(SC(CC)(C(C)=O)c1ccccc1)C(N)=O` (configuration not stated) here?
A: 91 % of control

Q: And the T/C (dose: 100.0 mg/kg/injection, schedule: Q01DX009 (ip), vehicle: saline with Tween-80)?
A: 90 % of control

Q: What about the T/C (dose: 200.0 mg/kg/injection, schedule: Q01DX009 (ip), vehicle: saline with Tween-80) of the same compound?
A: 88 % of control

Q: And the T/C (dose: 400.0 mg/kg/injection, schedule: Q01DX009 (ip), vehicle: saline with Tween-80)?
A: 90 % of control

Q: Which results are given for `CN(C)CCCOc1ccc(NC2=C(Cl)C(=O)C(Nc3ccc(OCCCN(C)C)cc3)=C(Cl)C2=O)cc1`?
A: T/C (dose: 6.25 mg/kg/injection, schedule: Q01DX005 (ip), vehicle: suspension in saline): 101 % of control; T/C (dose: 12.5 mg/kg/injection, schedule: Q01DX005 (ip), vehicle: suspension in saline): 101 % of control; T/C (dose: 25.0 mg/kg/injection, schedule: Q01DX005 (ip), vehicle: suspension in saline): 103 % of control

Q: What does the source list for `O=C(Nc1cccnc1)c1cccc([N+](=O)[O-])c1`?
A: T/C [7]: 100 % of control; T/C [8]: 98 % of control; T/C [9]: 97 % of control

Q: `CN(C)P(=O)(Oc1occc1C(C)(C)O)N(C)C` was tested. Which T/C (dose: 7.5 mg/kg/injection, schedule: Q01DX005 (ip), vehicle: saline) did it give?
A: 100 % of control

Q: And the T/C (dose: 15.0 mg/kg/injection, schedule: Q01DX005 (ip), vehicle: saline)?
A: 102 % of control

Q: How did the T/C [2] turn out when `N=c1nccnn1O` was run?
A: 100 % of control

Q: And the T/C [3]?
A: 99 % of control

Q: What about the T/C (dose: 400.0 mg/kg/injection, schedule: Q04DX003 (ip), vehicle: saline with Tween-80) of the same compound?
A: 100 % of control
